Results taken from article PMC5299038 (Structure (London, England : 1993), 2017).

What was measured:
TpCADE [1] = target: TpCADE (Trueperella pyogenes, UniProt Z9JAQ5MWQ7); experiment: coupled glucose oxidase assay; format: biochemical; settings: hydrolysis of the alpha-1,3-linkages
TpCADE [2] = settings: hydrolysis of the alpha-1,3-linkages

Q: Which Km (TpCADE [1]) does the source give for cycloalternan here?
A: 2.1 ± 0.2 mM

Q: And the Km (TpCADE [2])?
A: 9.3 ± 1.5 mM
